Measurements published in article PMC5218480 (PLoS ONE, 2017).

Test system: MV-4-11 cells
Assay: Gene expression microarray analysis (Affymetrix PrimeView) and GSEA
Type: cell-based, human
Set-up: RFU PODN (11730768_x_at) / Fold change /veh PODN (11730768_x_at) / RFU LINC00158 (11744669_a_at) / Fold change /veh LINC00158 (11744669_a_at) / RFU DUSP10 (11751237_a_at) / Fold change /veh DUSP10 (11751237_a_at) / RFU ID3 (11757404_x_at) / Fold change /veh ID3 (11757404_x_at) / RFU PLEKHG5 (11737974_s_at) / Fold change /veh PLEKHG5 (11737974_s_at) / RFU LRRC4B (11730491_at) / Fold change /veh LRRC4B (11730491_at) / RFU GIMAP4 (11747438_a_at) / Fold change /veh GIMAP4 (11747438_a_at) / RFU KRT8 (11758183_x_at) / Fold change /veh KRT8 (11758183_x_at) / RFU CNN1 (11734310_a_at) / Fold change /veh CNN1 (11734310_a_at) / RFU VPS37D (11726825_at) / Fold change /veh VPS37D (11726825_at) / RFU C10orf10 (11716522_x_at) / Fold change /veh C10orf10 (11716522_x_at) / RFU KIR2DL2 /// KIR2DL4 /// KIR2DL5A /// KIR2DL5B /// KIR2DS1 /// KIR2DS2 /// KIR2DS3 /// KIR2DS4 /// KIR3DL3 /// KIR3DL3 /// KIR3DS1 (11738374_at) / Fold change /veh KIR2DL2 /// KIR2DL4 /// KIR2DL5A /// KIR2DL5B /// KIR2DS1 /// KIR2DS2 /// KIR2DS3 /// KIR2DS4 /// KIR3DL3 /// KIR3DL3 /// KIR3DS1 (11738374_at) / RFU C1QL1 (11718748_at) / Fold change /veh C1QL1 (11718748_at) / RFU TMPRSS4 (11747572_a_at) / Fold change /veh TMPRSS4 (11747572_a_at) / RFU HAMP (11756126_x_at) / Fold change /veh HAMP (11756126_x_at) / RFU RNFT2 (11725882_a_at) / Fold change /veh RNFT2 (11725882_a_at) / RFU NR4A2 (11747474_a_at) / Fold change /veh NR4A2 (11747474_a_at) / RFU ABCC12 (11746883_a_at) / Fold change /veh ABCC12 (11746883_a_at) / RFU TMEM136 (11760407_x_at) / Fold change /veh TMEM136 (11760407_x_at) / RFU CLDN22 /// WWC2 (11732394_at) / Fold change /veh CLDN22 /// WWC2 (11732394_at) / RFU HLA-DPB1 (11760878_x_at) / Fold change /veh HLA-DPB1 (11760878_x_at) / RFU SPINT1 (11716480_a_at) / Fold change /veh SPINT1 (11716480_a_at) / RFU GAP43 (11754022_s_at) / Fold change /veh GAP43 (11754022_s_at) / RFU A4GNT (11735810_at) / Fold change /veh A4GNT (11735810_at) / RFU PRB3 (11715151_x_at) / Fold change /veh PRB3 (11715151_x_at) / RFU TUBB4B (11761932_at) / Fold change /veh TUBB4B (11761932_at) / RFU CAPN14 (11732068_a_at) / Fold change /veh CAPN14 (11732068_a_at) / RFU TMCC2 (11721928_a_at) / Fold change /veh TMCC2 (11721928_a_at) / RFU IRGQ (11745062_a_at) / Fold change /veh IRGQ (11745062_a_at) / RFU FAM174B (11720279_a_at) / Fold change /veh FAM174B (11720279_a_at) / RFU TMPRSS4 (11748680_a_at) / Fold change /veh TMPRSS4 (11748680_a_at) / RFU FAM212B (11763350_a_at) / Fold change /veh FAM212B (11763350_a_at) / RFU PLEKHG5 (11743358_a_at) / Fold change /veh PLEKHG5 (11743358_a_at) / RFU ZSCAN30 (11745921_a_at) / Fold change /veh ZSCAN30 (11745921_a_at) / RFU CMKLR1 (11741424_a_at) / Fold change /veh CMKLR1 (11741424_a_at) / RFU LOC101060620 /// MAPK8IP1 (11723275_at) / Fold change /veh LOC101060620 /// MAPK8IP1 (11723275_at) / RFU SPTSSB (11747773_x_at) / Fold change /veh SPTSSB (11747773_x_at) / RFU PRSS12 (11739890_at) / Fold change /veh PRSS12 (11739890_at) / RFU BIN1 (11741810_x_at) / Fold change /veh BIN1 (11741810_x_at) / RFU WNT11 (11732464_a_at) / Fold change /veh WNT11 (11732464_a_at) / RFU C10orf10 (11716521_a_at) / Fold change /veh C10orf10 (11716521_a_at) / RFU C5orf56 (11738089_at) / Fold change /veh C5orf56 (11738089_at) / RFU CYB561 (11721691_x_at) / Fold change /veh CYB561 (11721691_x_at) / RFU ANKRD19P (11752326_a_at) / Fold change /veh ANKRD19P (11752326_a_at) / RFU OR2T12 /// OR2T33 /// OR2T8 (11738714_s_at) / Fold change /veh OR2T12 /// OR2T33 /// OR2T8 (11738714_s_at) / RFU VCAN (11748164_a_at) / Fold change /veh VCAN (11748164_a_at) / RFU JSRP1 (11732532_at) / Fold change /veh JSRP1 (11732532_at) / RFU KRTAP10-11 (11738290_x_at) / Fold change /veh KRTAP10-11 (11738290_x_at) / RFU MYO3A (11730013_a_at) / Fold change /veh MYO3A (11730013_a_at) / RFU EBF3 (11725865_a_at) / Fold change /veh EBF3 (11725865_a_at) / RFU CAMK2N1 (11719241_x_at) / Fold change /veh CAMK2N1 (11719241_x_at) / RFU C5orf56 (11738088_a_at) / Fold change /veh C5orf56 (11738088_a_at) / RFU OLFML3 (11715873_a_at) / Fold change /veh OLFML3 (11715873_a_at) / RFU LOC100653217 /// NTM (11731650_a_at) / Fold change /veh LOC100653217 /// NTM (11731650_a_at) / RFU MAPK11 (11762145_a_at) / Fold change /veh MAPK11 (11762145_a_at) / RFU FIZ1 (11724087_x_at) / Fold change /veh FIZ1 (11724087_x_at) / RFU OASL (11726364_x_at) / Fold change /veh OASL (11726364_x_at) / RFU SOX15 (11748057_x_at) / Fold change /veh SOX15 (11748057_x_at) / RFU CD79A (11719716_a_at) / Fold change /veh CD79A (11719716_a_at) / RFU HIST1H1D (11736915_at) / Fold change /veh HIST1H1D (11736915_at) / RFU CASKIN2 (11723855_a_at) / Fold change /veh CASKIN2 (11723855_a_at) / RFU LOC730098 (11760151_x_at) / Fold change /veh LOC730098 (11760151_x_at) / RFU OR4N2 (11742367_at) / Fold change /veh OR4N2 (11742367_at) / RFU PRRT2 (11749266_a_at) / Fold change /veh PRRT2 (11749266_a_at) / RFU SNX32 (11753110_a_at) / Fold change /veh SNX32 (11753110_a_at) / RFU CDHR5 (11726645_a_at) / Fold change /veh CDHR5 (11726645_a_at) / RFU RCAN1 (11760418_a_at) / Fold change /veh RCAN1 (11760418_a_at) / RFU FAM167A (11723789_a_at) / Fold change /veh FAM167A (11723789_a_at) / RFU FAM26E (11764081_at) / Fold change /veh FAM26E (11764081_at) / RFU ISYNA1 (11749810_s_at) / Fold change /veh ISYNA1 (11749810_s_at) / RFU ACY1 (11761880_at) / Fold change /veh ACY1 (11761880_at) / RFU 11764098_at / Fold change /veh 11764098_at / RFU SAMD14 (11745864_x_at) / Fold change /veh SAMD14 (11745864_x_at) / RFU NPB (11741838_a_at) / Fold change /veh NPB (11741838_a_at) / RFU TMPRSS6 (11731388_a_at) / Fold change /veh TMPRSS6 (11731388_a_at) / RFU KRTAP10-2 (11738614_at) / Fold change /veh KRTAP10-2 (11738614_at) / RFU ARHGAP8 /// PRR5-ARHGAP8 (11727945_x_at) / Fold change /veh ARHGAP8 /// PRR5-ARHGAP8 (11727945_x_at) / RFU KRTAP5-7 /// NADSYN1 (11734609_at) / Fold change /veh KRTAP5-7 /// NADSYN1 (11734609_at) / RFU RASL12 (11751679_a_at) / Fold change /veh RASL12 (11751679_a_at) / RFU CDKN2B (11736163_a_at) / Fold change /veh CDKN2B (11736163_a_at) / RFU PRF1 (11729649_at) / Fold change /veh PRF1 (11729649_at) / RFU, ZNF638 /// ZNF638-IT1 / Fold change vs veh, ZNF638 /// ZNF638-IT1 / RFU, PANK3 / Fold change vs veh, PANK3 / RFU, SH3YL1 / Fold change vs veh, SH3YL1 / RFU, ZEB2 / Fold change vs veh, ZEB2 / RFU, NRIP1 / Fold change vs veh, NRIP1 / RFU, PTTG1IP / Fold change vs veh, PTTG1IP / RFU, CAPN2 / Fold change vs veh, CAPN2 / RFU, MED14 / Fold change vs veh, MED14 / RFU, SNORA58 / Fold change vs veh, SNORA58 / RFU, C1orf63 / Fold change vs veh, C1orf63 / RFU, LRRFIP1 / Fold change vs veh, LRRFIP1 / RFU, NDUFAF7 / Fold change vs veh, NDUFAF7 / RFU, SLC12A2 / Fold change vs veh, SLC12A2 / RFU, IBTK / Fold change vs veh, IBTK / RFU, ESF1 / Fold change vs veh, ESF1 / Fold change vs veh, TMEM50B / RFU, TAOK1 / Fold change vs veh, TAOK1 / RFU, ACBD3 / Fold change vs veh, ACBD3 / RFU, TMA16 / Fold change vs veh, TMA16 / RFU, RWDD3 / Fold change vs veh, RWDD3 / RFU, BCAT1 / Fold change vs veh, BCAT1 / RFU, EDEM3 / Fold change vs veh, EDEM3 / RFU, TMEM33 / Fold change vs veh, TMEM33 / RFU, WDR75 / Fold change vs veh, WDR75 / RFU, AHCTF1 / Fold change vs veh, AHCTF1 / RFU, TFRC / Fold change vs veh, TFRC / RFU, ZDHHC17 / Fold change vs veh, ZDHHC17 / RFU, NOM1 / Fold change vs veh, NOM1 / RFU, ARL8B / Fold change vs veh, ARL8B / RFU, ZBTB11 / Fold change vs veh, ZBTB11 / RFU, TAMM41 / Fold change vs veh, TAMM41 / RFU, KIAA1704 /// LOC100996395 / Fold change vs veh, KIAA1704 /// LOC100996395 / RFU, ING1 / Fold change vs veh, ING1 / RFU, TRMT61B / Fold change vs veh, TRMT61B / RFU, FUBP3 / Fold change vs veh, FUBP3 / RFU, TP53 / Fold change vs veh, TP53 / RFU, TNKS2 / Fold change vs veh, TNKS2 / RFU, ZFP14 / Fold change vs veh, ZFP14 / RFU, ACTR2 / Fold change vs veh, ACTR2 / RFU, PPP3R1 / Fold change vs veh, PPP3R1 / RFU, PIK3R1 / Fold change vs veh, PIK3R1 / RFU, HNRNPA1 / Fold change vs veh, HNRNPA1 / RFU, RNF170 / Fold change vs veh, RNF170 / RFU, ZNF28 / Fold change vs veh, ZNF28 / RFU, RNGTT / Fold change vs veh, RNGTT / RFU, OGT / Fold change vs veh, OGT / RFU, BRD1 / Fold change vs veh, BRD1 / RFU, MARS / Fold change vs veh, MARS / RFU, ZNF655 / Fold change vs veh, ZNF655 / RFU, FAHD1 / Fold change vs veh, FAHD1 / RFU, BDP1 / Fold change vs veh, BDP1 / RFU, LRRCC1 / Fold change vs veh, LRRCC1 / RFU, ARID1A / Fold change vs veh, ARID1A / RFU, ZNF146 / Fold change vs veh, ZNF146 / RFU, ZNF330 / Fold change vs veh, ZNF330 / RFU, GPN3 / Fold change vs veh, GPN3 / RFU, C9orf123 / Fold change vs veh, C9orf123 / RFU, N4BP2L2 / Fold change vs veh, N4BP2L2 / RFU, ARFIP1 / Fold change vs veh, ARFIP1 / RFU, FAM179B / Fold change vs veh, FAM179B / RFU, BCL10 / Fold change vs veh, BCL10 / RFU, UHRF1BP1L / Fold change vs veh, UHRF1BP1L / RFU, BET1 / Fold change vs veh, BET1 / RFU, CNOT2 / Fold change vs veh, CNOT2 / RFU, ZNF268 / Fold change vs veh, ZNF268 / Fold change vs veh, ZNF507 / RFU, DGCR2 / Fold change vs veh, DGCR2 / RFU, WDSUB1 / Fold change vs veh, WDSUB1 / Fold change vs veh, HSP90B1 /// MIR3652 / RFU, ADSS / Fold change vs veh, ADSS / RFU, GK / Fold change vs veh, GK / RFU, ZNF148 / Fold change vs veh, ZNF148 / RFU, TAF9 / Fold change vs veh, TAF9 / RFU, SLC1A5 / Fold change vs veh, SLC1A5 / RFU, SLMO2 / Fold change vs veh, SLMO2 / RFU, ABCC4 / Fold change vs veh, ABCC4 / RFU, LOC101060439 /// RAP1B / Fold change vs veh, LOC101060439 /// RAP1B / RFU, RFX7 / Fold change vs veh, RFX7 / RFU, GTPBP10 / Fold change vs veh, GTPBP10 / RFU, CNEP1R1 / Fold change vs veh, CNEP1R1 / RFU, BIVM-ERCC5 /// ERCC5 / Fold change vs veh, BIVM-ERCC5 /// ERCC5 / RFU, ILF3 / Fold change vs veh, ILF3 / RFU 11762660_at / Fold change /veh 11762660_at / RFU VCAN (11757783_s_at) / Fold change /veh VCAN (11757783_s_at) / RFU DDX43 (11728927_at) / Fold change /veh DDX43 (11728927_at) / RFU KRT8 (11758188_x_at) / Fold change /veh KRT8 (11758188_x_at) / RFU NKD1 (11759106_at) / Fold change /veh NKD1 (11759106_at) / RFU SRD5A1 (11742802_a_at) / Fold change /veh SRD5A1 (11742802_a_at) / RFU TPSAB1 /// TPSB2 (11721975_s_at) / Fold change /veh TPSAB1 /// TPSB2 (11721975_s_at) / RFU GSTM3 (11746129_a_at) / Fold change /veh GSTM3 (11746129_a_at) / RFU IL23R (11737362_x_at) / Fold change /veh IL23R (11737362_x_at) / RFU TMEM51 (11727254_a_at) / Fold change /veh TMEM51 (11727254_a_at) / RFU PIWIL2 (11732686_x_at) / Fold change /veh PIWIL2 (11732686_x_at) / RFU ORM1 (11744905_x_at) / Fold change /veh ORM1 (11744905_x_at) / RFU CCDC152 (11743942_at) / Fold change /veh CCDC152 (11743942_at) / RFU ECM1 (11717891_a_at) / Fold change /veh ECM1 (11717891_a_at) / RFU IL23R (11748794_a_at) / Fold change /veh IL23R (11748794_a_at) / RFU TNFAIP8L3 (11732012_x_at) / Fold change /veh TNFAIP8L3 (11732012_x_at) / RFU MBOAT4 (11741988_at) / Fold change /veh MBOAT4 (11741988_at) / RFU 11764193_at / Fold change /veh 11764193_at / RFU TMEM53 (11763286_at) / Fold change /veh TMEM53 (11763286_at) / RFU MAGEB2 (11727129_at) / Fold change /veh MAGEB2 (11727129_at) / RFU TMEM200A (11744735_a_at) / Fold change /veh TMEM200A (11744735_a_at) / RFU CCDC152 (11751479_a_at) / Fold change /veh CCDC152 (11751479_a_at) / RFU FAM211A (11726209_a_at) / Fold change /veh FAM211A (11726209_a_at) / RFU RGS16 (11746705_a_at) / Fold change /veh RGS16 (11746705_a_at) / RFU VCAN (11755009_s_at) / Fold change /veh VCAN (11755009_s_at) / RFU RHOB (11743442_s_at) / Fold change /veh RHOB (11743442_s_at) / RFU RGS16 (11720943_a_at) / Fold change /veh RGS16 (11720943_a_at) / RFU RGS16 (11720944_at) / Fold change /veh RGS16 (11720944_at) / RFU, VPS4B / Fold change vs veh, VPS4B / RFU, CREB1 / Fold change vs veh, CREB1 / RFU, DNAJC13 / Fold change vs veh, DNAJC13 / RFU, GNAQ / Fold change vs veh, GNAQ / RFU, CDK5R1 / Fold change vs veh, CDK5R1 / RFU, ZRANB3 / Fold change vs veh, ZRANB3 / RFU, CUL4A / Fold change vs veh, CUL4A / RFU, CCNY / Fold change vs veh, CCNY / RFU, UFL1 / Fold change vs veh, UFL1 / RFU, COG3 / Fold change vs veh, COG3 / RFU, DIAPH2 / Fold change vs veh, DIAPH2 / RFU, SKA2 / Fold change vs veh, SKA2 / RFU, AFF3 / Fold change vs veh, AFF3 / RFU, LMF1 / Fold change vs veh, LMF1 / RFU, IPO11 / Fold change vs veh, IPO11 / RFU, DFFB / Fold change vs veh, DFFB / RFU, FOXP1 / Fold change vs veh, FOXP1 / RFU, CARD8 / Fold change vs veh, CARD8 / RFU, STRN3 / Fold change vs veh, STRN3 / RFU, ADK / Fold change vs veh, ADK / RFU, RASSF2 / Fold change vs veh, RASSF2 / RFU, WIPF1 / Fold change vs veh, WIPF1 / RFU, LARP1B / Fold change vs veh, LARP1B / RFU, RASA1 / Fold change vs veh, RASA1 / RFU, RB1 / Fold change vs veh, RB1 / RFU, PPFIA1 / Fold change vs veh, PPFIA1 / RFU, MAT2A / Fold change vs veh, MAT2A / RFU, CCT5 / Fold change vs veh, CCT5 / RFU, WDR92 / Fold change vs veh, WDR92 / RFU, CUX1 / Fold change vs veh, CUX1 / RFU, TTC7A / Fold change vs veh, TTC7A / RFU, TMEM135 / Fold change vs veh, TMEM135 / RFU, DEPTOR / Fold change vs veh, DEPTOR / RFU, CPM / Fold change vs veh, CPM / RFU, DNAJB6 / Fold change vs veh, DNAJB6 / RFU, CACNA2D3 / Fold change vs veh, CACNA2D3 / RFU, DTX4 / Fold change vs veh, DTX4 / RFU, TFCP2 / Fold change vs veh, TFCP2 / RFU, GMCL1 /// GMCL1P1 / Fold change vs veh, GMCL1 /// GMCL1P1 / RFU, AEBP2 / Fold change vs veh, AEBP2 / RFU, SNHG1 /// SNORD22 /// SNORD25 /// SNORD26 /// SNORD27 /// SNORD28 /// SNORD29 /// SNORD31 / Fold change vs veh, SNHG1 /// SNORD22 /// SNORD25 /// SNORD26 /// SNORD27 /// SNORD28 /// SNORD29 /// SNORD31 / Fold change (Aza/veh), C12orf56 (ProbeSet 11735607_a_at) / Fold change (ACY-1035/veh), C12orf56 (ProbeSet 11735607_a_at) / Fold change (Aza/veh), FGFR1OP (ProbeSet 11751329_s_at) / Fold change (ACY-1035/veh), FGFR1OP (ProbeSet 11751329_s_at) / Fold change (Aza/veh), VPS36 (ProbeSet 11739960_a_at) / Fold change (ACY-1035/veh), VPS36 (ProbeSet 11739960_a_at) / RFU SYPL1 (11715823_x_at) / Fold change /veh SYPL1 (11715823_x_at) / RFU IGFBP7 (11715501_s_at) / Fold change /veh IGFBP7 (11715501_s_at) / RFU REEP3 (11722064_at) / Fold change /veh REEP3 (11722064_at) / RFU IGLL1 (11728026_x_at) / Fold change /veh IGLL1 (11728026_x_at): dose or concentration left out as unconfirmed
Details: ProbeSet 11741311_a_at; LIST B

Nc1ccc(-c2cccs2)cc1NC(=O)c1ccc2c(c1)cc(C1CC1)n2CCN1CCOCC1 [ACY-1035]
RFU, ZNF655: 32.95 RFU
